In brackets after ≈: the same amount, converted by molar mass.
What was measured:
[1] = test system: mice; test: safety test, single administration to mice, observed for 7 days; type: in vivo, mouse; details: 10 mg/kg, 10 mice per group
Procedure: Each of hexadecane, octadecane, eicosane, 1-eicosanol, 1-pentadecanol, dibutyl phthalate, dioctyl phthalate, diisononyl phthalate, dicyclohexyl phthalate, and 6-formyl-3,4-dehydro-2,8-dimethyl-2-(3′,6′-dienyl-8′-hydroxy-4′-methylnonane)-2H-1-benzopyrane is dissolved in dimethylsulfoxide (DMSO) and diluted with water.

[2] = test system: Enteromorpha spores; test: inhibitory activity test against the mobility of Enteromorpha spores (Sargassum confusum fractions, Tables 5-8); type: cell-based
[3] = test system: Staphylococcus aureus; test: minimum inhibitory concentration (MIC) by two-fold serial dilution in nutrient broth; type: cell-based; details: 30° C., 48 hours
Description: (§1) A liquid medium obtained by diluting PAGS by two-fold serial dilution was placed on a 96-multiwell plate and inoculated with 10^4 cfu/ml of microorganisms. […] The liquid medium used in the test was a nutrient broth (Difco).

[4] = test system: Aspergillus niger; test: as above; type: cell-based; details: 30° C., 48 hours
Description: as §1

[5] = test system: spores of Ulva pertusa; test: inhibitory effect test against the mobility of the spores of Ulva pertusa (Example 2 fractions); type: cell-based
Procedure: The effects of the fractions I-VI on the inhibition of attachment of fouling organisms were tested on Ulva pertusa, one of typical fouling algae. Ulva pertusa was collected in Kyongpodae, Kangnung-city, Kangwon-Do, Korea. The collected seaweed was transported to a laboratory in which only Ulva pertusa was screened. In order to remove fouling organisms, the screened algae were treated three times with supersonic waves for 1 minute for each time, and then washed clean with sterilized seawater. The washed algae were simply sterilized by immersion in a mixed solution of 1% betadine and 2% trition X-100 for 1 minute, followed by semi-drying. The semi-dried Ulva pertusa was added to sterilized seawater and placed in a 80 μmol m^−2s^−, 20° C. incubator to induce the release of spores.
10 μl of dimethyl sulfoxide (DMSO) was placed in a prepared tube, to which the seawater having spores released therein was then added. […] Before inoculation with each fraction at each dilution concentration, the movement of spores in the seawater was examined and the result was used as a comparison with a control group.

[6] = in vivo
Procedure: Methyl stearate is an opaque white-colored crystal and has the following physical properties: a melting point of 40-42° C., and a boiling point of 181-182° C.

[7] = test system: eyes of rabbits; details: rabbit, in vivo
[8] = test system: human body; details: in vivo
[9] = oral toxicity of methyl palmitate in mice; details: mouse, in vivo, administered orally to mice
[10] = fish toxicity against water; details: Blugil fish (a kind of trout), in vivo, other: exposure in water
Procedure: The physical properties of methyl palmitate are as follows: a melting point of 32-34° C., a boiling point of 163-164° C., and a density of 0.852. […] Blugil fish which is a kind of trout was tested for toxicity against water, the result was as follows: LC50=1000 ml/l.

[11] = ratio 1:0 (not explained; test of PAGS)
[12] = ratio 3:1 (not explained; test of PAGS)

Molecule | death of the mice [1] | Mobility inhibitory activity ([5]; 125 μg/ml) | Mobility inhibitory activity ([5]; 250 μg/ml) | Mobility inhibitory activity ([5]; 500 μg/ml) | Mobility inhibitory activity ([5]; 1,000 μg/ml) | Mobility inhibitory activity ([5]; 2,000 μg/ml) | Mobility inhibitory activity ([5]; 4,000 μg/ml) | other results
CCCCCCCCCCCCCCCCCC [octadecane] | no death | – | – | – | – | – | – | –
6-formyl-3,4-dehydro-2,8-dimethyl-2-(3′,6′-dienyl-8′-hydroxy-4′-methylnonane)-2H-1-benzopyrane | no death | – | – | – | – | – | – | Activity (inhibition of the mobility of spores) ([2]; 125 μg/ml): ++++ (more than 95% inhibition of the mobility of spores); Activity (inhibition of the mobility of spores) ([2]; 250 μg/ml): ++++ (more than 95% inhibition of the mobility of spores); Activity (inhibition of the mobility of spores) ([2]; 500 μg/ml): ++++ (more than 95% inhibition of the mobility of spores); Activity (inhibition of the mobility of spores) ([2]; 1,000 μg/ml): ++++ (more than 95% inhibition of the mobility of spores); Activity (inhibition of the mobility of spores) ([2]; 2,000 μg/ml): ++++ (more than 95% inhibition of the mobility of spores); Activity (inhibition of the mobility of spores) ([2]; 4,000 μg/ml): ++++ (more than 95% inhibition of the mobility of spores); MIC Staphylococcus aureus 1:0 [3, 11]: 4; MIC Staphylococcus aureus 3:1 [3, 12]: 1; MIC Aspergillus niger 1:0 [4, 11]: 10; MIC Aspergillus niger 3:1 [4, 12]: 2
CCCCCCCCCCCCCCCO [D] | – | ++++ (more than 95% inhibition of the mobility of spores) | ++++ (more than 95% inhibition of the mobility of spores) | ++++ (more than 95% inhibition of the mobility of spores) | ++++ (more than 95% inhibition of the mobility of spores) | ++++ (more than 95% inhibition of the mobility of spores) | ++++ (more than 95% inhibition of the mobility of spores) | –
CCCCCCCCCCCCCCCCCCCCO [Example 1-eicosanol, 1-eicosanol] | no death | – | – | – | – | – | – | –
CCCCOC(=O)c1ccccc1C(=O)OCCCC [E] | – | ++++ (more than 95% inhibition of the mobility of spores) | ++++ (more than 95% inhibition of the mobility of spores) | ++++ (more than 95% inhibition of the mobility of spores) | ++++ (more than 95% inhibition of the mobility of spores) | ++++ (more than 95% inhibition of the mobility of spores) | ++++ (more than 95% inhibition of the mobility of spores) | –
CCCCCCCCCCCCCCCCCC(=O)OC [methyl stearate] | – | – | – | – | – | – | – | LD50 ([6]; in vivo, species and route not given): > 17200 mg/kg; stimulus ([6]; suction, intake, epidermal absorption): gives no stimulus
CCCCCCCCCCCCCCCCCCCCO [C] | – | ++++ (more than 95% inhibition of the mobility of spores) | ++++ (more than 95% inhibition of the mobility of spores) | ++++ (more than 95% inhibition of the mobility of spores) | ++++ (more than 95% inhibition of the mobility of spores) | ++++ (more than 95% inhibition of the mobility of spores) | ++++ (more than 95% inhibition of the mobility of spores) | –
CC(C)CCCCCCOC(=O)c1ccccc1C(=O)OCCCCCCC(C)C [diisononyl phthalate] | no death | – | – | – | – | – | – | –
CCCCCCCCCCCCCCCO [1-pentadecanol] | no death | – | – | – | – | – | – | –
CCCCOC(=O)c1ccccc1C(=O)OCCCC [dibutyl phthalate] | no death | – | – | – | – | – | – | –
CCCCCCCCOC(=O)c1ccccc1C(=O)OCCCCCCCC [F] | – | ++++ (more than 95% inhibition of the mobility of spores) | ++++ (more than 95% inhibition of the mobility of spores) | ++++ (more than 95% inhibition of the mobility of spores) | ++++ (more than 95% inhibition of the mobility of spores) | ++++ (more than 95% inhibition of the mobility of spores) | ++++ (more than 95% inhibition of the mobility of spores) | –
O=C(OC1CCCCC1)c1ccccc1C(=O)OC1CCCCC1 [dicyclohexyl phthalate] | no death | – | – | – | – | – | – | –
CCCCCCCCOC(=O)c1ccccc1C(=O)OCCCCCCCC [dioctyl phthalate] | no death | – | – | – | – | – | – | –
CCCCCCCCCCCCCCCCCCCC (single isomer, unassigned) [eicosane] | no death | – | – | – | – | – | – | –
CCCCCCCCCCCCCCCCCCCC [B] | – | ++++ (more than 95% inhibition of the mobility of spores) | ++++ (more than 95% inhibition of the mobility of spores) | ++++ (more than 95% inhibition of the mobility of spores) | ++++ (more than 95% inhibition of the mobility of spores) | ++++ (more than 95% inhibition of the mobility of spores) | ++++ (more than 95% inhibition of the mobility of spores) | –
CCCCCCCCCCCCCCCC(=O)OC [methyl palmitate] | – | – | – | – | – | – | – | stimulus to eyes [7]: only a transient stimulus phenomenon occurred; stimulus to skin [8]: only a very mild stimulus remained; LD50 [9]: > 20000 mg/kg; LC50 [10]: 1000 mg/L (≈ 3.7 mM)
CCCCCCCCCCCCCCCC [hexadecane] | no death | – | – | – | – | – | – | –
O=C(OC1CCCCC1)c1ccccc1C(=O)OC1CCCCC1 [H] | – | ++++ (more than 95% inhibition of the mobility of spores) | ++++ (more than 95% inhibition of the mobility of spores) | ++++ (more than 95% inhibition of the mobility of spores) | ++++ (more than 95% inhibition of the mobility of spores) | ++++ (more than 95% inhibition of the mobility of spores) | ++++ (more than 95% inhibition of the mobility of spores) | –
CC(C)CCCCCCOC(=O)c1ccccc1C(=O)OCCCCCCC(C)C [G] | – | ++++ (more than 95% inhibition of the mobility of spores) | ++++ (more than 95% inhibition of the mobility of spores) | ++++ (more than 95% inhibition of the mobility of spores) | ++++ (more than 95% inhibition of the mobility of spores) | ++++ (more than 95% inhibition of the mobility of spores) | ++++ (more than 95% inhibition of the mobility of spores) | –
